Results taken from ChEMBL document CHEMBL1139749, “Design, synthesis and in vivo activity of 9-(S)-dihydroerythromycin derivatives as potent anti-inflammatory agents” (2006).

Test system: Mus musculus
Experiment: Antiinflammatory activity in topically dosed CD1 mouse assessed as inhibition of PMA-induced ear edema at 0.5 mg/ear
Assay type: functional

SMILES | Inhibition
CC[C@H]1OC(=O)[C@H](C)[C@@H](O[C@H]2C[C@@](C)(OC)[C@@H](O)[C@H](C)O2)[C@H](C)[C@@H](O[C@H]2O[C@@H](C)C[C@@H](N(C)C(=O)CNCCNCc3ccccc3)[C@@H]2O)[C@](C)(O)C[C@@H](C)[C@H](O)[C@H](C)[C@@H](O)[C@]1(C)O | 87%
CC[C@H]1OC(=O)[C@H](C)[C@@H](O)[C@H](C)[C@@H](O[C@H]2O[C@@H](C)C[C@@H](N(C)CCCNCc3nccs3)[C@@H]2O)[C@](C)(O)C[C@@H](C)[C@H](O)[C@H](C)[C@@H](O)[C@]1(C)O | 53%
CC[C@H]1OC(=O)[C@H](C)[C@@H](O[C@H]2C[C@@](C)(OC)[C@@H](O)[C@H](C)O2)[C@H](C)[C@@H](O[C@H]2O[C@@H](C)C[C@@H](N(C)C(=O)CNCCN(C)C)[C@@H]2O)[C@](C)(O)C[C@@H](C)[C@H](O)[C@H](C)[C@@H](O)[C@]1(C)O | 31%
CC[C@H]1OC(=O)[C@H](C)[C@@H](O)[C@H](C)[C@@H](O[C@H]2O[C@@H](C)C[C@@H](N(C)C(C)=O)[C@@H]2O)[C@](C)(O)C[C@@H](C)[C@H](O)[C@H](C)[C@@H](O)[C@]1(C)O | 66%
CC[C@H]1OC(=O)[C@H](C)[C@@H](O)[C@H](C)[C@@H](O[C@H]2O[C@@H](C)C[C@@H](NCCNCCNCc3nccs3)[C@@H]2O)[C@](C)(O)C[C@@H](C)[C@H](O)[C@H](C)[C@@H](O)[C@]1(C)O | 45%
CC[C@H]1OC(=O)[C@H](C)[C@@H](O[C@H]2C[C@@](C)(OC)[C@@H](O)[C@H](C)O2)[C@H](C)[C@@H](O[C@H]2O[C@@H](C)C[C@@H](N(C)Cc3ccccc3)[C@@H]2O)[C@](C)(O)C[C@@H](C)[C@H](O)[C@H](C)[C@@H](O)[C@]1(C)O | 58%
CC[C@H]1OC(=O)[C@H](C)[C@@H](O[C@H]2C[C@@](C)(OC)[C@@H](O)[C@H](C)O2)[C@H](C)[C@@H](O[C@H]2O[C@@H](C)C[C@@H](NCCNCCNCc3nccs3)[C@@H]2O)[C@](C)(O)C[C@@H](C)[C@H](O)[C@H](C)[C@@H](O)[C@]1(C)O | 43%
CC[C@H]1OC(=O)[C@H](C)[C@@H](O[C@H]2C[C@@](C)(OC)[C@@H](O)[C@H](C)O2)[C@H](C)[C@@H](O[C@H]2O[C@@H](C)C[C@@H](N(C)C(=O)CNCCC(C)C)[C@@H]2O)[C@](C)(O)C[C@@H](C)[C@H](O)[C@H](C)[C@@H](O)[C@]1(C)O | 18%
CC[C@H]1OC(=O)[C@H](C)[C@@H](O[C@H]2C[C@@](C)(OC)[C@@H](O)[C@H](C)O2)[C@H](C)[C@@H](O[C@H]2O[C@@H](C)C[C@@H](N(C)C(=O)CNCc3ccccc3)[C@@H]2O)[C@](C)(O)C[C@@H](C)[C@H](O)[C@H](C)[C@@H](O)[C@]1(C)O | 71%
CC[C@H]1OC(=O)[C@H](C)[C@@H](O[C@H]2C[C@@](C)(OC)[C@@H](O)[C@H](C)O2)[C@H](C)[C@@H](O[C@H]2O[C@@H](C)C[C@@H](N(C)CCCNCc3nccs3)[C@@H]2O)[C@](C)(O)C[C@@H](C)[C@H](O)[C@H](C)[C@@H](O)[C@]1(C)O | 74%
CC[C@H]1OC(=O)[C@H](C)[C@@H](O[C@H]2C[C@@](C)(OC)[C@@H](O)[C@H](C)O2)[C@H](C)[C@@H](O[C@H]2O[C@@H](C)C[C@@H](N(C)C(C)=O)[C@@H]2O)[C@](C)(O)C[C@@H](C)[C@H](O)[C@H](C)[C@@H](O)[C@]1(C)O | 79%
CC[C@H]1OC(=O)[C@H](C)[C@@H](O[C@H]2C[C@@](C)(OC)[C@@H](O)[C@H](C)O2)[C@H](C)[C@@H](O[C@@H]2O[C@H](C)C[C@H](N(C)C)[C@H]2O)[C@](C)(O)C[C@@H](C)C(=O)[C@H](C)[C@@H](O)[C@]1(C)O [ERYTHROMYCIN] | 42%
